According to patent publication US9827221B2, “Crystalline solids of a metAP-2 inhibitor and methods of making and using same” (Zafgen, Inc., priority 2010, dated 2017):
In brackets after ≈: the same amount, converted by molar mass.

Tests used:
Format in all cases: physicochemical
[1] = Solubility in diisopropyl ether; details: organic solvent or mixture
[2] = Solubility in solvent (e.g. aqueous solution that may include a buffer) with pH greater or equal to about 8.0; details: pH 8, aqueous buffer, ca. 20° C.
[3] = Stability of the crystalline form to grinding (mortar and pestle; PLM, XRPD); details: ca. 500 mg ground with mortar and pestle for approximately 5 minutes
Description: A sample (ca. 500 mg) from the scale-up of crystalline compound as in Example 2 was placed onto a mortar (Agate material, H: 35 mm, L: 77 mm). The sample was then ground using a pestle (length: 80 mm; grinding diameter: 17 mm) for approximately 5 minutes. Throughout the grinding procedure, the sample was allowed to stand for ca. 10 seconds intermittently to ensure that significant heat was not generated. PLM indicated birefrigent material with particle sizes measuring between about 20 μm and 80 μm in length.

[4] = Solid-form stability of Form C on storage (conversion to Form A)
Description: A sample of amorphous material of 6-O-(4-dimethylaminoethoxy)cinnamoyl fumagillol was exposed to vapors of neat trichloroethane at ambient temperature. The amorphous form readily deliquesced. The deliquesced sample was stored in a cold environment and evaporated to dryness using a Genevac centrifuge evaporator. The sample was then sealed, submerged in dry ice for ca. 15 minutes and stored in a freezer ([…]). The sample remained glassy during storage in the freezer (−20° C., 9 days), and was then stored at 5° C. (9 days), resulting in crystalline, Form C (see FIG. 13 for micrograph). A portion of the Form C sample was left at ambient temperature.

Compound | solubility ([1]; 50° C.) [mg/mL] | solubility ([1]; room temperature (ca. 20° C.)) [mg/mL] | solubility [2] [mg/mL] | crystallinity after grinding (XRPD) [3] | relative stability of the crystalline forms ([4]; Form C relative to Form A) | solid form conversion on storage ([4]; sample left at ambient temperature) | solid form conversion on storage ([4]; sample stored at 5° C.)
CO[C@@H]1[C@H](OC(=O)/C=C/c2ccc(OCCN(C)C)cc2)CCC2(CO2)[C@H]1C1(C)OC1CC=C(C)C (stereo partly shown) [Form A, 6-O-(4-dimethylaminoethoxy)cinnamoyl fumagillol] | ~102 (≈ 204 mM) | ~25 (≈ 50 mM) | < 0.2 | remained highly crystalline |  |  | 
CO[C@@H]1[C@H](OC(=O)/C=C/c2ccc(OCCN(C)C)cc2)CCC2(CO2)[C@H]1C1(C)OC1CC=C(C)C (stereo partly shown) [Form C, 6-O-(4-dimethylaminoethoxy)cinnamoyl fumagillol] |  |  |  |  | metastable relative to Form A | converted to Form A after three days | converted to Form A after three days
